Columns and labels:
Experiment in all cases: Single concentration Kobs assay (time-dependent inhibition) in HLM
Assay type in all cases: biochemical
CYP2C9 = molecular target: T1, CYP2C9 (Homo sapiens, UniProt P11712); conditions: for Kobs 2C9: HLM, 0.02 min^−1 indicates TD inhibition potential; for Kobs 2C9 / inhibition at 30 min: single concentration; for Single concentration Kobs assay (risk bin) 2C9: TD inhibition class from Kobs vs 0.02 min^−1 (Table 5 traffic lights); for inhibition at 30 min: human, human liver microsomes, significant if >50%, read-out: 2C9 R_Inh% (reversible inhibition)
T1 construct: Using HLM as the enzyme source; from tissue; host or cells: human liver microsomes
From the text: (§1) CYP inhibition evaluation is typically performed by either IC50 at single-point or IC50 Shift or abbreviated assay such as the first-order inactivity rate constant (K obs ) at single concentration.
(§2) This method yielded good correlations between the percent inhibition at 10 or 25 μ M and kinact/KI. Evaluation of TD inhibition at single concentration has been implemented in several drug discovery programs. […] Therefore, in this study, a single K obs approach has been utilized to understand the TD inhibition potential of TbB ligands. Ideally, the inhibition of CYPs can be reversible or irreversible. The data obtained from single-concentration K obs studies were analyzed to understand the same. From the data presented in Table 4, the TbB ligands have values less than 50% for reversible inhibition (R_Inh). As the qualified % reversible inhibition is considered significant if >50%, no significant reversible inhibition is observed for TbB ligands. Knowledge about enzyme inactivation half-life (E½) is also equally important as it would provide insight into the TD inhibition of a compound. E½ can be used to bin the compounds as positive or negative TD inhibitors if the values are <28 or >28, respectively. The TbB ligand 223-2 is observed to be a weak positive TD inhibitor of 1A2 and is negative TD inhibitor to the other six CYP isoforms.
The time-dependent inhibition (TDI) potential of test compounds against CYP1A2, 2B6, 2C8, 2C9, 2C19, 2D6, 3A4/5 isoforms were determined using Human liver microsomes. Assay is performed in 96-deep well plate format (n = 1). Positive controls and DMSO as negative control in each assay. To obtain 100 μ M working stock solution, 1 μ L of blank DMSO/test/reference compounds to 100 μ L 1× DPBS buffer was added and labeled as dilution plate. To the primary incubation plate, 45 μ L of primary mix was dispensed to the desired wells containing 25 μ L HLM, 10 μ L MgCl2, and 10 μ L of NADPH working solutions. To the secondary incubation plate, 95 μ L of secondary mix was dispensed to the desired wells containing 20 μ L MgCl2, 20 μ L NADPH, 10 μ L respective substrates for CYP isoform working solutions and 45 μ L 1× DPBS buffer. […] Pre-incubated the dilution plate along with primary incubation plate at 37 °C for 15 min at 450 rpm. The reaction was carried out in triplicate. After the incubation, the reaction was quenched by adding 150 μ L ice cold stop solution to all the wells followed by centrifuging the samples at 4000 rpm, 4 °C for 15 min. The supernatant samples were then transferred into vials for LC-MS/MS analysis. […]

CYP2B6 = molecular target: T2, CYP2B6 (Homo sapiens, UniProt P20813); conditions: for Kobs 2B6: HLM, single concentration, 0.02 min^−1 indicates TD inhibition potential; for Single concentration Kobs assay (risk bin) 2B6: TD inhibition class from Kobs vs 0.02 min^−1 (Table 5 traffic lights)
T2 construct: Using HLM as the enzyme source; from tissue; host or cells: human liver microsomes
T2 sequence (P20813 1-491): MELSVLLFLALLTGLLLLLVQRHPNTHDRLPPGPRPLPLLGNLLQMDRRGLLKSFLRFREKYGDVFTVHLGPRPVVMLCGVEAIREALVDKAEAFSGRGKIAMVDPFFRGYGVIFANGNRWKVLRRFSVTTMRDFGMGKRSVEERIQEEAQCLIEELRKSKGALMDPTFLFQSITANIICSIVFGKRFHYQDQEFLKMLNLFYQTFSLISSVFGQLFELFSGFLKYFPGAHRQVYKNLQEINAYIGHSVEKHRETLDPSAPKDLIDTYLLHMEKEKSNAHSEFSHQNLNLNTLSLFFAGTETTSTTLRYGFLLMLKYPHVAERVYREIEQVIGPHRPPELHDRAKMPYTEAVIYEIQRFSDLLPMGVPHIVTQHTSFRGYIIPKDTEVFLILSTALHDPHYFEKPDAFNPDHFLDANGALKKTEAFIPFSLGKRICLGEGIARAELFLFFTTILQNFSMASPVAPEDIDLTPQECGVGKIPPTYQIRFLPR
From the text: as §1, §2
(§3) The time-dependent inhibition (TDI) potential of test compounds against CYP1A2, 2B6, 2C8, 2C9, 2C19, 2D6, 3A4/5 isoforms were determined using Human liver microsomes. Assay is performed in 96-deep well plate format (n = 1). Positive controls and DMSO as negative control in each assay. To obtain 100 μ M working stock solution, 1 μ L of blank DMSO/test/reference compounds to 100 μ L 1× DPBS buffer was added and labeled as dilution plate. To the primary incubation plate, 45 μ L of primary mix was dispensed to the desired wells containing 25 μ L HLM, 10 μ L MgCl2, and 10 μ L of NADPH working solutions. To the secondary incubation plate, 95 μ L of secondary mix was dispensed to the desired wells containing 20 μ L MgCl2, 20 μ L NADPH, 10 μ L respective substrates for CYP isoform working solutions and 45 μ L 1× DPBS buffer. Each of these four plates were labeled with their respective time points, i.e., 0, 6, 16, 32 min. Pre-incubated the dilution plate along with primary incubation plate at 37 °C for 15 min at 450 rpm. The reaction was carried out in triplicate. After the incubation, the reaction was quenched by adding 150 μ L ice cold stop solution to all the wells followed by centrifuging the samples at 4000 rpm, 4 °C for 15 min. The supernatant samples were then transferred into vials for LC-MS/MS analysis. The percent Reversible Inhibition was calculated using the following formula. %Reversibleinhibition=100−(PARtestcompt0×100)/(PARaverageDMSOt0)

CYP2C8 = molecular target: T3, CYP2C8 (Homo sapiens, UniProt P10632); conditions: for Kobs 2C8: HLM, 0.02 min^−1 indicates TD inhibition potential; for Kobs 2C8 / inhibition at 30 min: single concentration; for Single concentration Kobs assay (risk bin) 2C8: TD inhibition class from Kobs vs 0.02 min^−1 (Table 5 traffic lights); for inhibition at 30 min: human, human liver microsomes, significant if >50%, read-out: 2C8 R_Inh% (reversible inhibition)
T3 construct: Using HLM as the enzyme source; from tissue; host or cells: human liver microsomes
T3 sequence (P10632 1-490): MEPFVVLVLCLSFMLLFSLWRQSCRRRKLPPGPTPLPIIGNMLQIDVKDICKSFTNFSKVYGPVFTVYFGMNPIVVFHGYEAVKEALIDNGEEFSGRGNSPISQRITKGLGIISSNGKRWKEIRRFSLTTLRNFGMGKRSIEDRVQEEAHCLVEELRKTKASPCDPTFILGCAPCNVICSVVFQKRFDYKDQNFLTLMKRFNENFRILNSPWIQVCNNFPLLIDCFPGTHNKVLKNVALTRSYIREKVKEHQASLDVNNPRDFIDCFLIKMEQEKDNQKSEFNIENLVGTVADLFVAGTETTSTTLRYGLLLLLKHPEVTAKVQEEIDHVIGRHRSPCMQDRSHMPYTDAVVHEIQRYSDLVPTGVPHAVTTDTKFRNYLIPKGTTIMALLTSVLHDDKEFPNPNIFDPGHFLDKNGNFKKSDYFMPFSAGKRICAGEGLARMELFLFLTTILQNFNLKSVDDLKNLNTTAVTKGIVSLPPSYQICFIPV
From the text: as §1, §2, §3

CYP2D6 = molecular target: T4, CYP2D6 (Homo sapiens, UniProt P10635); conditions: for Kobs 2D6: HLM, 0.02 min^−1 indicates TD inhibition potential; for Kobs 2D6 / inhibition at 30 min: single concentration; for Single concentration Kobs assay (risk bin) 2D6: TD inhibition class from Kobs vs 0.02 min^−1 (Table 5 traffic lights); for inhibition at 30 min: human, human liver microsomes, significant if >50%, read-out: 2D6 R_Inh% (reversible inhibition)
T4 construct: Using HLM as the enzyme source; from tissue; host or cells: human liver microsomes
From the text: as §1, §2, §3

T1 sequence (P11712 whole entry): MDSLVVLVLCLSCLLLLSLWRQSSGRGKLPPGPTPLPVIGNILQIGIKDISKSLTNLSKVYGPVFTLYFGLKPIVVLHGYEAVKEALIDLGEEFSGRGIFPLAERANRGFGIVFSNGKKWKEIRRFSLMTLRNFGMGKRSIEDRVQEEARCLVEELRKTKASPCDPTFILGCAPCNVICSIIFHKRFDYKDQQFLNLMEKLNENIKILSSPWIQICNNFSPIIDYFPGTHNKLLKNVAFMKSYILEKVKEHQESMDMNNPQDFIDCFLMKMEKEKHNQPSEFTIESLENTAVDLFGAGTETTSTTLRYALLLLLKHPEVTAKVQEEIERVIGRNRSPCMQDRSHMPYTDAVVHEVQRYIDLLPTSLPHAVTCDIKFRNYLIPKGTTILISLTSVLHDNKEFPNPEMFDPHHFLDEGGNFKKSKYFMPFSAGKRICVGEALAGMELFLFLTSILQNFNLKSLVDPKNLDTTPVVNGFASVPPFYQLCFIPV
T4 sequence (P10635 whole entry): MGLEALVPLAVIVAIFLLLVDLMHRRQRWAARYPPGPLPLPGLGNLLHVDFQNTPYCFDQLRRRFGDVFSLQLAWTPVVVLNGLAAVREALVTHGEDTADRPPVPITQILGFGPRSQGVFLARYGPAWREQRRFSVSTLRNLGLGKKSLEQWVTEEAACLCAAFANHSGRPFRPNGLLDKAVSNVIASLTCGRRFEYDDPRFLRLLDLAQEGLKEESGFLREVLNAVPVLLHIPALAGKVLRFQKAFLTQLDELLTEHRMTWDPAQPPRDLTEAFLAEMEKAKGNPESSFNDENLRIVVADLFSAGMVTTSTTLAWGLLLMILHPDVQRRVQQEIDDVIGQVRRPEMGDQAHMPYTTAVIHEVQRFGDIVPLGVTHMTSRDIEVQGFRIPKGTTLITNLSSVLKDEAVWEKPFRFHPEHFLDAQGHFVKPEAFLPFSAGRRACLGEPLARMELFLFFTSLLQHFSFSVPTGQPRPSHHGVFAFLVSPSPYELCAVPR

Kobs 2C9 (CYP2C9) [min⁻¹] | Single concentration Kobs assay (risk bin) 2C9 (CYP2C9) | inhibition at 30 min (CYP2C9) [%] | Kobs 2B6 (CYP2B6) [min⁻¹] | Kobs 2B6 (CYP2B6; listed as 223-02) [min⁻¹] | Single concentration Kobs assay (risk bin) 2B6 (CYP2B6) | Kobs 2C8 (CYP2C8) [min⁻¹] | Single concentration Kobs assay (risk bin) 2C8 (CYP2C8) | inhibition at 30 min (CYP2C8) [%] | Kobs 2D6 (CYP2D6) [min⁻¹] | Single concentration Kobs assay (risk bin) 2D6 (CYP2D6) | inhibition at 30 min (CYP2D6) [%] | Kobs 2C9 (CYP2C9; listed as 223-03) [min⁻¹] | Compound
0.005304 | negative inhibitor | < 50 | 0.0147 | 0.01472 | weak positive inhibitor | 0.004276 | negative inhibitor | < 50 | 1.479e-10 | negative inhibitor | < 50 |  | COc1cc(-c2nnn(-c3cc(OC)c(O)c(OC)c3)n2)cc(OC)c1O [223-2]
0.0748 | positive inhibitor | < 50 | 0.02027 |  | weak positive inhibitor | 0.02943 | positive inhibitor | < 50 | 0.01109 | weak positive inhibitor | < 50 | 0.07477 | Cc1cc(-c2nnn(-c3cc(C)c(O)c(C)c3)n2)cc(C)c1O [223-3]
 | positive inhibitor | < 50 | 0.01121 |  | weak positive inhibitor | 0.01585 | weak positive inhibitor | < 50 | 0.009064 | negative inhibitor | < 50 |  | Oc1ccc(-c2nnn(-c3ccc(O)cc3)n2)cc1 [223-10]
